Data on eight molecules can be found in ChEMBL document CHEMBL1126236, “Synthesis and muscarinic receptor activity of ester derivatives of 2-substituted 2-azabicyclo[2.2.1]heptan-5-ol and -6-ol” (J Med Chem, 1992).

The target of assay [1] is Muscarinic acetylcholine receptor. In words: Inhibition of [3H]QNB binding to muscarinic receptor of rat heart membrane preparation.
Assay [2] shares this target. In words: Inhibition of [3H]- Oxo-M binding to muscarinic receptor of rat brain membrane preparations.
The target of assay [3] is T1, Muscarinic acetylcholine receptor M3 (Rattus norvegicus, UniProt P08483). In words: Inhibition of [3H]QNB binding to m3 receptor transfected with CHO cell. Format: cell-based.
T1 sequence (P08483 whole entry): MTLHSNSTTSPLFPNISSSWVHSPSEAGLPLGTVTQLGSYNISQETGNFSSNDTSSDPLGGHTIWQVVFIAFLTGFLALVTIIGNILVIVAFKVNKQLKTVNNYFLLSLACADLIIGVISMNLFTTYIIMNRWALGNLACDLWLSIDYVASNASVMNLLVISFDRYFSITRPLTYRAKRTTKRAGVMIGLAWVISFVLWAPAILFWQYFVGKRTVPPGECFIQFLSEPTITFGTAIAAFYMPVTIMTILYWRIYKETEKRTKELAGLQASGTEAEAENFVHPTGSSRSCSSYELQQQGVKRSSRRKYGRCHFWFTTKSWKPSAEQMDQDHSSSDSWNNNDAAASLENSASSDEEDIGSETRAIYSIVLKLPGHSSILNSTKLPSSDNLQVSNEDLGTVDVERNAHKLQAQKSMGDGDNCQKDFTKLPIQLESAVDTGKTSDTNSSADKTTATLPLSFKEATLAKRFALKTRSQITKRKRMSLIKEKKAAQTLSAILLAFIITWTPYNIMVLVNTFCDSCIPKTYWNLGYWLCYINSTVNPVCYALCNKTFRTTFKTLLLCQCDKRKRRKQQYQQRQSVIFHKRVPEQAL
In assay [4] the target is T2, Muscarinic acetylcholine receptor M1 (Rattus norvegicus, UniProt P08482).
T2 sequence (P08482 whole entry): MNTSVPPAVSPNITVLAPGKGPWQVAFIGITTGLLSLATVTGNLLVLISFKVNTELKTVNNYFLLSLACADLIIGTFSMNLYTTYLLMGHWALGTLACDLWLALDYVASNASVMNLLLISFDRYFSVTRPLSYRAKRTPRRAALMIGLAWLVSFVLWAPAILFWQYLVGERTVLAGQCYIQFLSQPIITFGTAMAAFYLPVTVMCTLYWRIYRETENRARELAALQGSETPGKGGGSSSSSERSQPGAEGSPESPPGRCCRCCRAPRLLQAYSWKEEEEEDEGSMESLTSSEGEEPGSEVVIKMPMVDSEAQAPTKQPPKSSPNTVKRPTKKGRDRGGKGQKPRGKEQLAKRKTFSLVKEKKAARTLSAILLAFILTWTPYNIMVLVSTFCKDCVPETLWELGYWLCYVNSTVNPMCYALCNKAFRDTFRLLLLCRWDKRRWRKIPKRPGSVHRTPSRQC
In words: Inhibition of [3H]QNB binding to Muscarinic acetylcholine receptor M1 transfected with CHO cell. The class given is cell-based.

Assay [5] deals with Muscarinic acetylcholine receptor. In words: Inhibition of [3H]QNB binding to muscarinic receptor of rat brain membrane preparation.
The target in assay [6] is T1, Muscarinic acetylcholine receptor M3. In words: Inhibition of [3H]QNB binding to Muscarinic acetylcholine receptor M3 transfected with CHO cell. Format: cell-based.

Molecules are shown by their SMILES.

`CC(=O)O[C@H]1CC2CC1N(Cc1ccccc1)C2` (stereo partly specified): the Ki (as a rule, a dissociation constant, usually derived from enzyme kinetics or from competition with a known ligand) in assay [1] is 15.1 µM; in assay [2], 7.21 µM; in assay [3] it was 18.8 µM; in assay [4], 7.01 µM; in assay [5] it was 6.63 µM.
`CN1CC2CC1C[C@H]2OC(=O)C(C)(c1ccccc1)c1ccccc1` (stereo partly specified): the figures for the Ki in assay [6], in assay [1] and in assay [4] were 0.000522 µM, 0.00118 µM and 0.000423 µM, respectively.
Turning to `CC(=O)O[C@H]1CC2CC1CN2C` (stereo partly specified), the Ki in assay [6] amounted to 12 µM; in assay [1], 10.1 µM; in assay [2], 0.23 µM; in assay [4] it was 17.5 µM; in assay [5], 9.84 µM.
For `CC(=O)OC1CC2CC1CN2Cc1ccccc1` (stereo unspecified), in that order: 26.9 µM, 10.3 µM, 1.56 µM, 18.9 µM and 14.8 µM.
Turning to `CC(=O)O[C@@H]1CC2CC1CN2C` (stereo partly specified), the Ki came to 27.7 µM in assay [6]; 17.4 µM in assay [1]; 1.43 µM in assay [2]; 21.9 µM in assay [4]; 11.5 µM in assay [5].
With `CN1CC2CC1C[C@@H]2OC(=O)C(C)(c1ccccc1)c1ccccc1` (stereo partly specified), the results for the Ki in assay [6], in assay [1] and in assay [4] were 0.000533 µM, 0.00407 µM and 0.000876 µM, respectively.
`CC(=O)OC1CC2CC1N(C)C2` (stereo unspecified): the Ki stood at 28 µM in assay [6]; 24.9 µM in assay [1]; 5.37 µM in assay [2]; 21.6 µM in assay [4]; 17.5 µM in assay [5].
The corresponding values for `CC(=O)O[C@@H]1CC2CC1N(Cc1ccccc1)C2` (stereo partly specified) are 47.6 µM, 15.3 µM, 2.57 µM, 2.26 µM and 20 µM.
